Calls of active or inactive are those of the source. The calls are words filed in the database; no cut-off is given here.
How the values were obtained:
[1] = test system: Calvarial osteoblast; test: Induction of mineralization in rat Calvarial osteoblast cells measured at 10 nM measured for 14 days by Cetylpyridinium chloride method; format: functional, tissue-based; conditions: time 14.0 day
[2] = test system: Calvarial osteoblast; test: (§1) Induction of osteogeneis in rat calvarial osteoblast cells assessed as fold upregulation of Col1 gene expression at 1 pM measured after 48 hrs by qPCR analysis relative to control; format: functional
[3] = Induction of osteogeneis in rat calvarial osteoblast cells assessed as fold upregulation of ALP gene expression at 1 pM measured after 48 hrs by qPCR analysis relative to control; format: functional
[4] = test system: Calvarial osteoblast; test: Cytotoxicity against rat Calvarial osteoblast cells assessed as viable cells measured at 0.000001 to 1 uM measure after 48 hrs by cell viability assay; format: cell-based; conditions: dose lower 1e-06 µM, dose upper 1 µM
[5] = test system: Calvarial osteoblast; test: Induction of osteoblast differentiation in rat Calvaria osteoblast cells measured assessed as maximal increase in alkaline phosphatase activity incubated for 48 hrs using PNPP as substrate; format: functional
[6] = test system: Calvarial osteoblast; test: Induction of rat Calvarial osteoblast cell proliferation at 0.000001 to 1 uM measured after 48 hrs by MTT assay; format: functional, tissue-based; conditions: dose lower 1e-06 µM, dose upper 1.0 µM
[7] = Induction of osteogeneis in rat calvarial osteoblast cells assessed as fold upregulation of BMP-2 gene expression at 1 pM measured after 48 hrs by qPCR analysis relative to control; format: functional
[8] = Induction of osteogeneis in rat calvarial osteoblast cells assessed as fold upregulation of RUNX2 gene expression at 1 pM measured after 48 hrs by qPCR analysis relative to control; format: functional
[9] = In vivo induction of osteogenic activity in neonatal rat pups assessed as fold increase in RUNX2 gene expression in calvarial tissue at 5 mg/kg, sc administered for 6 days; format: functional, Calvaria; conditions: time 6 day
[10] = test system: Rattus norvegicus; test: Induction of bone regeneration in adult rat femur osteotomy model assessed as increase in trabecular number measured at 5 mg/kg, po for 14 days by microCT analysis relative to control; format: functional, organism-based; conditions: time 14.0 day
[11] = test system: Calvarial osteoblast; test: Induction of osteogeneis in rat calvarial osteoblast cells assessed as upregulation of RUNX2 protein expression at 1 pM measured after 48 hrs by immunoblotting analysis; format: functional, tissue-based
[12] = test system: Rattus norvegicus; test: Induction of new bone formation in rat pups assessed as mineralized bone formation in calvaria by measuring increase in calvarial thickness at 5 mg/kg, sc measured after 5 days by Hematoxylin and eosin staining based quantitative histology; format: functional, organism-based; conditions: time 5.0 day
[13] = test system: Rattus norvegicus; test: In vivo induction of osteogenic activity in neonatal rat pups assessed as fold increase in BMP-2 gene expression in calvarial tissue at 5 mg/kg, sc administered for 6 days; format: functional, organism-based; conditions: Calvaria, time 6.0 day
[14] = In vivo induction of osteogenic activity in neonatal rat pups assessed as fold increase in OCN gene expression in calvarial tissue at 5 mg/kg, sc administered for 6 days; format: functional, Calvaria; conditions: time 6 day
[15] = Induction of bone regeneration in adult rat femur osteotomy model assessed as fold increase in Col1 gene expression in fracture calluses measured at 5 mg/kg, po for 14 days by […] relative to control; format: functional; conditions: time 14 day
[16] = test system: Rattus norvegicus; test: Induction of bone regeneration in adult rat femur osteotomy model assessed as increase in trabecular thickness measured at 5 mg/kg, po for 14 days by microCT analysis relative to control; format: functional, organism-based; conditions: time 14.0 day
[17] = In vivo induction of osteogenic activity in neonatal rat pups assessed as fold increase in OCN gene expression in calvarial tissue at 10 mg/kg, sc administered for 6 days; format: functional, Calvaria; conditions: time 6 day
[18] = AUC in Sprague-Dawley rat at 10 mg/kg, po by LC-MS/MS analysis; format: ADME, organism-based; set-up: dose 10 mg/kg; conditions: in vivo
[19] = test system: Calvarial osteoblast; test: Induction of osteogenesis in rat calvarial osteoblast cells assessed as upregulation of BMP-2 protein expression at 1 pM measured after 48 hrs by immunoblotting analysis; format: functional, cell-based
[20] = as §1; format: functional
[21] = Half life in Sprague-Dawley rat at 10 mg/kg, po by LC-MS/MS analysis; format: ADME, organism-based; conditions: in vivo
[22] = test system: Calvarial osteoblast; test: Induction of mineralization in rat Calvarial osteoblast cells measured at 1 pM measured for 14 days by Cetylpyridinium chloride method; format: functional, tissue-based; conditions: time 14.0 day
[23] = test system: Calvarial osteoblast; test: Induction of osteoblast differentiation in rat Calvaria osteoblast cells measured assessed as increase in alkaline phosphatase activity at 1 pM incubated for 48 hrs using PNPP as substrate; format: functional, cell-based
[24] = Clearance in Sprague-Dawley rat at 5 mg/kg, po by LC-MS/MS analysis; format: ADME, organism-based; conditions: in vivo
[25] = test system: Rattus norvegicus; test: Induction of new bone formation in rat pups assessed as mineralized bone formation in calvaria by measuring bone formation rate at 10 mg/kg, sc measured after 5 days by fluorescent microscopy by relative to control; format: functional, organism-based; conditions: time 5.0 day
[26] = test system: Rattus norvegicus; test: Induction of bone regeneration in adult rat femur osteotomy model assessed as restoration of bone morphology measured at 5 mg/kg, po for 14 days by toluidine blue staining based analysis; format: functional, organism-based; conditions: time 14.0 day
[27] = test system: Rattus norvegicus; test: Induction of new bone formation in rat pups assessed as mineralized bone formation in calvaria by measuring bone formation rate at 5 mg/kg, sc measured after 5 days by fluorescent microscopy by relative to control; format: functional, organism-based; conditions: time 5.0 day
[28] = AUC in Sprague-Dawley rat at 5 mg/kg, po by LC-MS/MS analysis; format: ADME, organism-based; set-up: dose 5 mg/kg; conditions: in vivo
[29] = Stability of the compound in simulated gastric acid at pH 1.2 measured after 1 hr by LC-MS/MS analysis; format: ADME; conditions: read-out: Stability
[30] = Stability in rat plasma after 1 hr incubation by LC-MS/MS analysis; format: ADME, cell-free; conditions: read-out: Stability
[31] = test system: Rattus norvegicus; test: Induction of new bone formation in rat pups assessed as mineral apposition rate in calvaria at 5 mg/kg, sc measured after 5 days by fluorescent microscopy by relative to control; format: functional, organism-based; conditions: time 5.0 day
[32] = Cmax in Sprague-Dawley rat at 10 mg/kg, po by LC-MS/MS analysis; format: ADME, organism-based; set-up: route oral, dose 10 mg/kg; conditions: in vivo
[33] = Induction of bone regeneration in adult rat femur osteotomy model assessed as fold increase in OCN expression in fracture calluses measured at 5 mg/kg, po for 14 days by […] relative to control; format: functional; conditions: time 14 day
[34] = Volume of distribution in Sprague-Dawley rat at 10 mg/kg, po by LC-MS/MS analysis; format: ADME, organism-based; conditions: in vivo
[35] = MRT in Sprague-Dawley rat at 10 mg/kg, po by LC-MS/MS analysis; format: ADME, organism-based; conditions: in vivo
[36] = Clearance in Sprague-Dawley rat at 10 mg/kg, po by LC-MS/MS analysis; format: ADME, organism-based; conditions: in vivo
[37] = Stability of the compound in simulated intestinal acid at pH 6.5 measured after 1 hr by LC-MS/MS analysis; format: ADME; conditions: read-out: Stability
[38] = Volume of distribution in Sprague-Dawley rat at 5 mg/kg, po by LC-MS/MS analysis; format: ADME, organism-based; conditions: in vivo
[39] = Cmax in Sprague-Dawley rat at 5 mg/kg, po by LC-MS/MS analysis; format: ADME, organism-based; set-up: route oral, dose 5 mg/kg; conditions: in vivo
[40] = test system: Calvarial osteoblast; test: Induction of osteoblast differentiation in rat Calvaria osteoblast cells measured assessed as increase in alkaline phosphatase activity at 0.000001 to 1 uM incubated for 48 hrs using PNPP as substrate in presence of noggin; format: functional, cell-based; conditions: dose lower 1e-06 µM, dose upper 1.0 µM
[41] = Stability in rat liver microsomes after 1 hr incubation by LC-MS/MS analysis; format: ADME, Microsome
[42] = test system: Rattus norvegicus; test: Induction of bone regeneration in adult rat femur osteotomy model assessed as increase in calcein labeled callus measured at 5 mg/kg, po for 14 days by calcein labeling study relative to control; format: functional; conditions: time 14 day
[43] = MRT in Sprague-Dawley rat at 5 mg/kg, po by LC-MS/MS analysis; format: ADME, organism-based; conditions: in vivo
[44] = test system: Rattus norvegicus; test: Induction of bone regeneration in adult rat femur osteotomy model assessed as increase in bone volume/tissue volume fraction measured at 5 mg/kg, po for 14 days by microCT analysis relative to control; format: functional; conditions: time 14 day
[45] = test system: Calvarial osteoblast; test: Induction of osteoblast differentiation in rat Calvaria osteoblast cells measured assessed as increase in alkaline phosphatase activity at 10 pM incubated for 48 hrs using PNPP as substrate; format: functional, cell-based
[46] = Half life in Sprague-Dawley rat at 5 mg/kg, po by LC-MS/MS analysis; format: ADME, organism-based; conditions: in vivo

With COc1cc(C(=O)Nc2ccc3c(c2)C(=O)CC(c2ccc(C(C)(C)C)cc2)O3)cc(OC)c1OC (stereo unspecified) the Activity [1] was “Active”, the Activity [2] was “inactive” and the “fold change (FC)” value [3] was 2.8. The Activity [4] was “Non-Toxic”, the ECmax [5] was 10 pM and the Activity [6] was “Toxic”. The “fold change (FC)” value [7] was 1.7 and the “fold change (FC)” value [8] was 1.9.

For COc1cccc(C2CC(=O)c3cc(NC(=O)c4cc(OC)c(OC)c(OC)c4)ccc3O2)c1 (racemic), the “fold change (FC)” value [9] was 2, the Activity [10] was “Active” and the Activity [11] was “Active”. For the same compound, the Activity [12] was “Active”, the Activity [13] was “Dose-Dependent Effect” and the “fold change (FC)” value [14] was 18. For the same compound, the “fold change (FC)” value [15] was 2.5, the Activity [16] was “Active” and the “fold change (FC)” value [17] was 10. The AUC [18] was 6530 ng·h/mL, the Activity [19] was “Active” and the “fold change (FC)” value [20] was 2.9. For the same compound, the half-life [21] was 5.85 h, the Activity [22] was “Active” and the “fold change (FC)” value [3] was 5.5. The Activity [23] was “Active”, the CL/F [24] was 17.3 mL/min/kg and the Activity [25] was “Active”. The Activity [26] was “Active”, the Activity [27] was “Active” and the AUC [28] was 4820 ng·h/mL. For the same compound, the remaining at 1 h [29] was 69%, the remaining at 1 h [30] was 89% and the Activity [31] was “inactive”. The Cmax [32] was 858 ng/mL, the “fold change (FC)” value [33] was 2.2 and the Vdss [34] was 12.99 L/kg. For the same compound, the MRT [35] was 9.17 h, the Activity [4] was “Non-Toxic” and the ECmax [5] was 1000 pM. For the same compound, the CL/F [36] was 25.7 mL/min/kg, the remaining at 1 h [37] was 88% and the Vdss [38] was 8.42 L/kg. The Cmax [39] was 736 ng/mL, the Activity [40] was “inactive” and the Activity [6] was “Toxic”. The “fold change (FC)” value [7] was 4.4, the Stability [41] was “Stable” and the Activity [42] was 130%. The MRT [43] was 7.68 h, the Activity [44] was 44.3% and the “fold change (FC)” value [8] was 3.7. For the same compound, the Activity [45] was “Active” and the half-life [46] was 5.6 h.

For COc1cccc(C2CC(=O)c3cc([N+](=O)[O-])ccc3O2)c1 (stereo unspecified), the Activity [23] was “Active” and the Activity [45] was “Active”.

In the case of COc1cc(C(=O)O)cc(OC)c1OC, the Activity [23] is reported as “Active” and the Activity [45] is reported as “Active”.

From ChEMBL document CHEMBL5030532, “Synthesis and Evaluation of Galloyl Conjugates of Flavanones as BMP-2 Upregulators with Promising Bone Anabolic and Fracture Healing Properties” (J Med Chem, 2021)
